Here are results for one molecule from patent publication US20040236269A1, “Microsurgical tissue treatment system” (priority 2002, published 2004).

Molecules are shown by their SMILES.

The nature of this assay: Delivery of a topical anesthetic through micro-ablated stratum corneum; sensation probed with 20 gauge needle or by pinching. It is filed as in vivo. To be noted: solution of 4% lidocaine applied for five minutes to approx. 1 cm^2 area ablated by piezoelectric actuator with 60 micron aluminum oxide particles, 10-15 pulses, 20 kHz; probed with 20 gauge needle or pinching. The protocol:
A piezoelectric actuator was fitted with 60 micron aluminum oxide particles fixed to its surface so as to provide an approximate 1 cm^2 treatment area. Ten to fifteen pulses of less than one second duration were applied with force of less than 1 pound to the area and frequency of 20 kHz. […] A solution of 4% lidocaine was applied to the area and incubated for five minutes. The excess lidocaine was wiped off, and a series of probes was made in and around the area of treatment using a 20 gauge needle or by pinching.

For the molecule `CCN(CC)CC(=O)Nc1c(C)cccc1C` [lidocaine], the “anesthesia (lack of sensation within and in close proximity to the treatment site)” value is “significant anesthesia was obtained”.
